Data published in patent US20250312349A1, “COMPOSITION AND METHODS OF TREATING INTRACELLULAR PATHOGEN INFECTION” (UNIVERSITY HOSPITALS CLEVELAND MEDICAL CENTER, priority 2024, published 2025).

What was measured:
Lek and Fyn in T cells = conditions: cited from earlier work
T. gondii [1] = conditions: mice with ocular and cerebral toxoplasmosis, dependent on Beclin 1; cited from earlier work
T. gondii [2] = experiment: In vitro infection of mammalian cells with T. gondii tachyzoites, counted by light microscopy; type: cell-based, Toxoplasma gondii; conditions: CHO cells, 0.3 μM or 1 μM, 2 or 24 hours
Method: Chinese Hamster Ovary (CHO; a gift from Cathleen Carlin, Case Western Reserve University), human retinal pigment epithelial (RPE) cells (ARPE-19; American Type Culture Collection, ATCC, Manassas, VA), and mouse endothelial […]) transduced with Src shRNA or control encoding lentiviral vectors were cultured in complete media. Mouse brain endothelial cells expressing WT or DN EGFR were isolated as described. Endothelial cells were cultured in medium containing Endothelial Cell Growth Supplement (ECGS; Sigma-Aldrich, St Louis, MO). Mammalian cells were infected with tachyzoites of the RH or PTG stains of T. gondii; RH strain was used unless otherwise indicated. Cells were fixed at 2 hours or 24 hours followed by staining using Hema 3 Manual Staining System (Fisherbrand, Hampton, NH). At least 100 to 200 cells per monolayer were counted by examining a minimum of 5 random areas per monolayer. The percentage of infected cells, tachyzoites and vacuoles per 100 cells, and tachyzoites per vacuole were counted using light microscopy. Three independent experiments were performed. Saracatinib, Gefitinib (LC Laboratories, Woburn, MA) and lysosomal inhibitors leupeptin and pepstatin (10 μM; Millipore Sigma, Burlington, MA) were used in specified experiments. Each cell monolayer was generated and infected independently.

Cc1nc(Nc2ncc(C(=O)Nc3c(C)cccc3Cl)s2)cc(N2CCN(CCO)CC2)n1.O [Dasatinib, N-(2-chloro-6-methylphenyl)-2-[[6-[4-(2-hydroxyethyl)-1-piperazinyl]-2-methyl-4-pyrimidinyl]amino]-5-thiazole carboxamide monohydrate]
IFN-γ production by T cells (Lek and Fyn in T cells): impaired | activity of Lek and Fyn in T cells (Lek and Fyn in T cells): reduced

COc1cc2ncnc(Nc3ccc(F)c(Cl)c3)c2cc1OCCCN1CCOCC1 [Gefitinib]
parasite load and histopathology in the eye and brain (T. gondii [1]): partial reduction

Cc1ccc(NC(=O)c2ccc(CN3CCN(C)CC3)cc2)cc1Nc1nccc(-c2cccnc2)n1 [Imatinib]
parasite survival (infected cells, tachyzoites per 100 cells) (T. gondii [2]): No significant difference
